Values quoted from earlier work, collected in patent US5112837A, “Quinoline derivatives having anti-tumor activity” (Imperial Chemical Industries PLC, priority 1987, dated 1992).

How the values were obtained:
[1] = literature references
[2] = system: human breast, ovarian and liver cancer; settings: clinical trials

For C#CCN(Cc1ccc2nc(N)[nH]c(=O)c2c1)c1ccc(C(=O)N[C@@H](CCC(=O)O)C(=O)O)cc1 [CB3717], the “symptoms of toxicity in humans” value [1] is given as “symptoms of toxicity in humans, particularly in relation to the liver and kidney” and the “activity against human cancer” value [2] is given as “promising activity against human breast, ovarian and liver cancer”.
